Source: ChEMBL document CHEMBL3745630, “Cloning, characterization and anion inhibition studies of a γ-carbonic anhydrase from the Antarctic bacterium Colwellia psychrerythraea” (Bioorg Med Chem, 2016)

assay: Inhibition of Colwellia psychrerythraea gamma carbonic anhydrase expressed in Escherichia coli incubated for 15 mins prior to testing by stopped flow CO2 hydration method

| Structure (SMILES) | Ki [mM] |
| --- | --- |
| OB(O)c1ccccc1 [PHENYLBORONIC ACID] | 0.026 |
| O=BOB(O)OB(O)OB=O [SODIUM TETRABORATE] | 4.7 |
| O=[Te](=O)(O)O [SODIUM TELLURATE] | 5.1 |
| O=[Se](=O)(O)O [SODIUM SELENATE] | 8.3 |
| [O-][Cl+3]([O-])([O-])O [SODIUM PERCHLORATE] | > 100 |
| [Cl-].[Na+] [SODIUM CHLORIDE] | 9 |
| O=S(=O)([O-])[O-].[Na+].[Na+] [SODIUM SULFATE ANHYDROUS] | 9.4 |
| S [SODIUM HYDROSULFIDE] | 4.8 |
| F[P-](F)(F)(F)(F)F.[Na+] | 5.6 |
| O=C([O-])[O-].[Na+].[Na+] [SODIUM CARBONATE] | 1.4 |
| [N-]=[N+]=[N-] [SODIUM AZIDE] | > 100 |
| NS(=O)(=O)O [SULFAMATE] | 0.037 |
| N#CO [SODIUM CYANATE] | 2.5 |
| O=C([O-])O.[Na+] [SODIUM BICARBONATE] | 1.7 |
| [F-].[Na+] [SODIUM FLUORIDE] | > 100 |
| NS(N)(=O)=O [SULFAMIDE] | 0.008 |
| [I-].[Na+] [SODIUM IODIDE] | 8.7 |
| O=[As](O)(O)c1ccccc1 [PHENYLARSONIC ACID] | 0.038 |
| O=S(=O)(O)OOS(=O)(=O)O [SODIUM PERSULFATE] | 4.5 |
| F[B-](F)(F)F.[Na+] [SODIUM TETRAFLUOROBORATE] | > 100 |
| O=[N+]([O-])[O-].[Na+] [SODIUM NITRATE] | 21.7 |
| [Br-].[Na+] [SODIUM BROMIDE] | > 100 |
| N=C=S [SODIUM ISOTHIOCYANATE] | 3.3 |
| O=NO [SODIUM NITRITE] | 8.8 |
| S=C(S)S [SODIUM CARBONOTRITHIOATE] | 3.8 |
| O=S([O-])O.[Na+] [SODIUM BISULFITE] | 37.5 |
| N=C=[Se] [SODIUM ISOSELENOCYANATE] | 6 |
| CCN(CC)C(=S)S [DITIOCARB SODIUM] | 0.58 |
